Test results as given in PubChem BioAssay (NCI).
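Five compound concentrations were applied to cells in 96-well plates for 48 hours; endpoints were derived by simple linear interpolation of the resulting dose-response curve. Here, GI50 denotes the concentration required for 50% inhibition of growth. At the TGI there is no net growth.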

Tests used:
Experiment in all cases: inhibition of tumour cell growth, NCI panel, 48 h
DLD-1 colon = tested on: DLD-1 colon
M19-MEL melanoma = tested on: M19-MEL melanoma
SNB-78 CNS = tested on: SNB-78 CNS
HOP-18 NSCLC = tested on: HOP-18 NSCLC
RXF-631 renal = tested on: RXF-631 renal

Structure (SMILES) | TGI (DLD-1 colon) [µM] | TGI (M19-MEL melanoma) [µM] | TGI (SNB-78 CNS) [µM] | TGI (HOP-18 NSCLC) [µM] | GI50 (HOP-18 NSCLC) [µM] | GI50 (M19-MEL melanoma) [µM] | TGI (RXF-631 renal) [µM]
COc1cc(C=O)cc(O)c1O | > 100 | > 100 | > 100 |  |  |  | 
C=CCCCCCCCCC(=O)O | 163 | 449 | 607 | 226 |  |  | 
COc1cccc2c1C(=O)c1c(O)c3c(c(O)c1C2=O)C[C@@](O)(C(=O)CO)CC3OC1CC(NCCCC(OC(C)=O)OC(C)=O)C(O)C(C)O1 (some centres not stated) |  | 0.000323 |  |  | 0.00507 | < 0.0001 | 0.000897
CN(C(=O)c1ccc(OCCCC(=O)O)c(Cl)c1Cl)C1CCCC1 | > 100 | > 100 | > 100 | > 100 |  |  | 
CC1=C2C3OC(=O)C(C)C3CCC2(C)C=CC1=Nc1ccccc1 (configuration not stated) | > 100 | > 100 | > 100 | > 100 |  |  | 
Cc1ccc(-c2cc(-c3ccco3)c(C#N)c(=O)n2C2OC(CO)C(O)C(O)C2O)cc1 (configuration not stated) | > 100 |  | > 100 | > 100 |  |  | 
